Measured values published in PubChem BioAssay (NCI).
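Test compounds were applied to cells in 96-well plates for 48 hours at 5 doses. TGI marks complete inhibition of growth.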

Columns and labels:
Test in all cases: growth of human tumour cells (NCI), 48 h
SN12C renal = system: SN12C renal
SNB-19 CNS = system: SNB-19 CNS
M14 melanoma = system: M14 melanoma
SK-MEL-2 melanoma = system: SK-MEL-2 melanoma
SK-MEL-5 melanoma = system: SK-MEL-5 melanoma
MOLT-4 leukemia = system: MOLT-4 leukemia
SW-620 colon = system: SW-620 colon
OVCAR-3 ovarian = system: OVCAR-3 ovarian
SR leukemia = system: SR leukemia
SK-MEL-28 melanoma = system: SK-MEL-28 melanoma
A549 NSCLC = system: A549 NSCLC
OVCAR-4 ovarian = system: OVCAR-4 ovarian
CAKI-1 renal = system: CAKI-1 renal
SK-OV-3 ovarian = system: SK-OV-3 ovarian
LXFL 529 NSCLC = system: LXFL 529 NSCLC
OVCAR-8 ovarian = system: OVCAR-8 ovarian
ACHN renal = system: ACHN renal
RXF 393 renal = system: RXF 393 renal
EKVX NSCLC = system: EKVX NSCLC
HL-60(TB) leukemia = system: HL-60(TB) leukemia
U251 CNS = system: U251 CNS
NCI-H460 lung = system: NCI-H460 lung
CCRF-CEM leukemia = system: CCRF-CEM leukemia
NCI-H23 lung = system: NCI-H23 lung
SF-295 CNS = system: SF-295 CNS
RXF-631 renal = system: RXF-631 renal
SNB-75 CNS = system: SNB-75 CNS
HCT-116 colon = system: HCT-116 colon
DLD-1 colon = system: DLD-1 colon
786-0 renal = system: 786-0 renal
OVCAR-5 ovarian = system: OVCAR-5 ovarian
NCI-H226 lung = system: NCI-H226 lung
HOP-18 NSCLC = system: HOP-18 NSCLC
SF-268 CNS = system: SF-268 CNS
KM20L2 colon = system: KM20L2 colon
K-562 leukemia = system: K-562 leukemia
HOP-92 NSCLC = system: HOP-92 NSCLC
KM12 colon = system: KM12 colon
NCI-H522 lung = system: NCI-H522 lung
HCC-2998 colon = system: HCC-2998 colon
MALME-3M melanoma = system: MALME-3M melanoma
UACC-257 melanoma = system: UACC-257 melanoma
LOX IMVI melanoma = system: LOX IMVI melanoma
IGROV1 ovarian = system: IGROV1 ovarian
UACC-62 melanoma = system: UACC-62 melanoma
COLO 205 colon = system: COLO 205 colon
M19-MEL melanoma = system: M19-MEL melanoma
HCT-15 colon = system: HCT-15 colon
TK-10 renal = system: TK-10 renal
UO-31 renal = system: UO-31 renal
HOP-62 NSCLC = system: HOP-62 NSCLC
RPMI-8226 leukemia = system: RPMI-8226 leukemia
HT29 colon = system: HT29 colon
DMS 114 small cell lung = system: DMS 114 small cell lung
SF-539 CNS = system: SF-539 CNS
DMS 273 small cell lung = system: DMS 273 small cell lung
A498 renal = system: A498 renal
SNB-78 CNS = system: SNB-78 CNS
XF 498 CNS = system: XF 498 CNS

## COc1cc(C(=O)Nc2cccc3ccccc23)c(Br)c(OC)c1OC
SN12C renal
  TGI: > 100 µM
SNB-19 CNS
  TGI: > 100 µM
M14 melanoma
  TGI: > 100 µM
SK-MEL-2 melanoma
  TGI: > 100 µM
SK-MEL-5 melanoma
  TGI: > 100 µM
MOLT-4 leukemia
  TGI: > 100 µM
SW-620 colon
  TGI: > 100 µM
OVCAR-3 ovarian
  TGI: > 100 µM
SR leukemia
  TGI: > 100 µM
SK-MEL-28 melanoma
  TGI: > 100 µM
A549 NSCLC
  TGI: > 100 µM
OVCAR-4 ovarian
  TGI: > 100 µM
CAKI-1 renal
  TGI: > 100 µM
SK-OV-3 ovarian
  TGI: > 100 µM
LXFL 529 NSCLC
  TGI: > 100 µM
OVCAR-8 ovarian
  TGI: 13.6 µM
ACHN renal
  TGI: > 100 µM
RXF 393 renal
  TGI: > 100 µM
EKVX NSCLC
  TGI: > 100 µM
HL-60(TB) leukemia
  TGI: 76.2 µM
U251 CNS
  TGI: > 100 µM
NCI-H460 lung
  TGI: > 100 µM
CCRF-CEM leukemia
  TGI: > 100 µM
NCI-H23 lung
  TGI: > 100 µM
SF-295 CNS
  TGI: > 100 µM
RXF-631 renal
  TGI: > 100 µM
SNB-75 CNS
  TGI: > 100 µM
HCT-116 colon
  TGI: > 100 µM
DLD-1 colon
  TGI: > 100 µM
786-0 renal
  TGI: 3.1 µM
OVCAR-5 ovarian
  TGI: > 100 µM
NCI-H226 lung
  TGI: > 100 µM
HOP-18 NSCLC
  TGI: 19.5 µM
SF-268 CNS
  TGI: > 100 µM
KM20L2 colon
  TGI: > 100 µM
K-562 leukemia
  TGI: > 100 µM
HOP-92 NSCLC
  TGI: > 100 µM
KM12 colon
  TGI: > 100 µM
NCI-H522 lung
  TGI: > 100 µM
HCC-2998 colon
  TGI: > 100 µM
MALME-3M melanoma
  TGI: > 100 µM
UACC-257 melanoma
  TGI: > 100 µM
LOX IMVI melanoma
  TGI: > 100 µM
IGROV1 ovarian
  TGI: > 100 µM
UACC-62 melanoma
  TGI: > 100 µM
COLO 205 colon
  TGI: > 100 µM
M19-MEL melanoma
  TGI: > 100 µM
HCT-15 colon
  TGI: > 100 µM
TK-10 renal
  TGI: > 100 µM
UO-31 renal
  TGI: 86.1 µM
HOP-62 NSCLC
  TGI: > 100 µM
RPMI-8226 leukemia
  TGI: > 100 µM
HT29 colon
  TGI: > 100 µM
DMS 114 small cell lung
  TGI: > 100 µM
SF-539 CNS
  TGI: > 100 µM

## COc1cc(/C=C2\CCC(C)(CN(C)C)C2=O)cc(OC)c1OC (stereo not given)
SN12C renal
  TGI: > 100 µM
SNB-19 CNS
  TGI: > 100 µM
M14 melanoma
  TGI: > 100 µM
SK-MEL-2 melanoma
  TGI: > 100 µM
SK-MEL-5 melanoma
  TGI: > 100 µM
MOLT-4 leukemia
  TGI: > 100 µM
SW-620 colon
  TGI: > 100 µM
OVCAR-3 ovarian
  TGI: > 100 µM
SR leukemia
  TGI: > 100 µM
SK-MEL-28 melanoma
  TGI: > 100 µM
DMS 273 small cell lung
  TGI: > 100 µM
A549 NSCLC
  TGI: > 100 µM
A498 renal
  TGI: > 100 µM
OVCAR-4 ovarian
  TGI: > 100 µM
CAKI-1 renal
  TGI: > 100 µM
SK-OV-3 ovarian
  TGI: > 100 µM
LXFL 529 NSCLC
  TGI: > 100 µM
OVCAR-8 ovarian
  TGI: > 100 µM
ACHN renal
  TGI: > 100 µM
RXF 393 renal
  TGI: > 100 µM
EKVX NSCLC
  TGI: > 88.3 µM
HL-60(TB) leukemia
  TGI: > 67.2 µM
SNB-78 CNS
  TGI: 99.4 µM
U251 CNS
  TGI: > 100 µM
NCI-H460 lung
  TGI: > 100 µM
CCRF-CEM leukemia
  TGI: > 100 µM
NCI-H23 lung
  TGI: > 100 µM
SF-295 CNS
  TGI: > 100 µM
SNB-75 CNS
  TGI: > 100 µM
HCT-116 colon
  TGI: > 100 µM
DLD-1 colon
  TGI: > 100 µM
786-0 renal
  TGI: > 100 µM
OVCAR-5 ovarian
  TGI: > 100 µM
NCI-H226 lung
  TGI: > 100 µM
HOP-18 NSCLC
  TGI: > 100 µM
SF-268 CNS
  TGI: > 100 µM
KM20L2 colon
  TGI: > 100 µM
K-562 leukemia
  TGI: > 100 µM
HOP-92 NSCLC
  TGI: > 100 µM
KM12 colon
  TGI: > 100 µM
NCI-H522 lung
  TGI: > 100 µM
HCC-2998 colon
  TGI: > 100 µM
MALME-3M melanoma
  TGI: > 100 µM
UACC-257 melanoma
  TGI: > 100 µM
LOX IMVI melanoma
  TGI: > 100 µM
IGROV1 ovarian
  TGI: > 100 µM
UACC-62 melanoma
  TGI: > 100 µM
COLO 205 colon
  TGI: > 100 µM
M19-MEL melanoma
  TGI: > 100 µM
HCT-15 colon
  TGI: > 100 µM
TK-10 renal
  TGI: > 100 µM
UO-31 renal
  TGI: > 100 µM
HOP-62 NSCLC
  TGI: > 100 µM
RPMI-8226 leukemia
  TGI: > 72.9 µM
HT29 colon
  TGI: > 100 µM
XF 498 CNS
  TGI: > 100 µM
DMS 114 small cell lung
  TGI: > 100 µM
SF-539 CNS
  TGI: > 100 µM

## CC(C)(C)OC(=O)C1=C(O)C(C(=O)OC(C)(C)C)C23CCCCC12C(C(=O)OC(C)(C)C)C(O)=C3C(=O)OC(C)(C)C (stereo not given)
SN12C renal
  TGI: > 100 µM
SNB-19 CNS
  TGI: > 100 µM
M14 melanoma
  TGI: > 100 µM
SK-MEL-2 melanoma
  TGI: > 100 µM
SK-MEL-5 melanoma
  TGI: > 100 µM
MOLT-4 leukemia
  TGI: > 100 µM
SW-620 colon
  TGI: > 100 µM
OVCAR-3 ovarian
  TGI: > 100 µM
SR leukemia
  TGI: > 100 µM
DMS 273 small cell lung
  TGI: > 100 µM
A549 NSCLC
  TGI: > 100 µM
A498 renal
  TGI: > 100 µM
OVCAR-4 ovarian
  TGI: > 100 µM
CAKI-1 renal
  TGI: > 100 µM
SK-OV-3 ovarian
  TGI: > 100 µM
LXFL 529 NSCLC
  TGI: > 100 µM
OVCAR-8 ovarian
  TGI: > 100 µM
ACHN renal
  TGI: > 100 µM
RXF 393 renal
  TGI: > 100 µM
EKVX NSCLC
  TGI: > 100 µM
HL-60(TB) leukemia
  TGI: > 100 µM
SNB-78 CNS
  TGI: > 100 µM
U251 CNS
  TGI: > 100 µM
NCI-H460 lung
  TGI: > 100 µM
CCRF-CEM leukemia
  TGI: > 100 µM
NCI-H23 lung
  TGI: > 100 µM
SF-295 CNS
  TGI: > 100 µM
SNB-75 CNS
  TGI: > 100 µM
HCT-116 colon
  TGI: > 100 µM
DLD-1 colon
  TGI: > 100 µM
786-0 renal
  TGI: > 100 µM
OVCAR-5 ovarian
  TGI: > 100 µM
NCI-H226 lung
  TGI: > 100 µM
HOP-18 NSCLC
  TGI: > 100 µM
SF-268 CNS
  TGI: > 100 µM
KM20L2 colon
  TGI: > 100 µM
K-562 leukemia
  TGI: > 100 µM
HOP-92 NSCLC
  TGI: > 100 µM
KM12 colon
  TGI: > 100 µM
NCI-H522 lung
  TGI: > 100 µM
HCC-2998 colon
  TGI: > 100 µM
MALME-3M melanoma
  TGI: > 100 µM
UACC-257 melanoma
  TGI: > 100 µM
LOX IMVI melanoma
  TGI: > 100 µM
IGROV1 ovarian
  TGI: > 100 µM
UACC-62 melanoma
  TGI: > 100 µM
COLO 205 colon
  TGI: > 100 µM
M19-MEL melanoma
  TGI: > 100 µM
HCT-15 colon
  TGI: > 100 µM
TK-10 renal
  TGI: > 100 µM
UO-31 renal
  TGI: > 100 µM
HOP-62 NSCLC
  TGI: > 100 µM
RPMI-8226 leukemia
  TGI: > 100 µM
HT29 colon
  TGI: > 100 µM
XF 498 CNS
  TGI: > 100 µM
DMS 114 small cell lung
  TGI: > 100 µM
SF-539 CNS
  TGI: > 100 µM
